Experimental data: ChEMBL document CHEMBL1153748 (J Med Chem, 2010)

Experiments:
[1] = biological target: T1, Peroxisome proliferator-activated receptor alpha (Homo sapiens) (UniProt Q07869); test: Agonist activity at human PPARalpha ligand binding domain expressed in human 293T cells co-transfected with Gal4-DBD by luciferase transactivation assay relative to KRP297; type: cell-based
T1 sequence (whole entry): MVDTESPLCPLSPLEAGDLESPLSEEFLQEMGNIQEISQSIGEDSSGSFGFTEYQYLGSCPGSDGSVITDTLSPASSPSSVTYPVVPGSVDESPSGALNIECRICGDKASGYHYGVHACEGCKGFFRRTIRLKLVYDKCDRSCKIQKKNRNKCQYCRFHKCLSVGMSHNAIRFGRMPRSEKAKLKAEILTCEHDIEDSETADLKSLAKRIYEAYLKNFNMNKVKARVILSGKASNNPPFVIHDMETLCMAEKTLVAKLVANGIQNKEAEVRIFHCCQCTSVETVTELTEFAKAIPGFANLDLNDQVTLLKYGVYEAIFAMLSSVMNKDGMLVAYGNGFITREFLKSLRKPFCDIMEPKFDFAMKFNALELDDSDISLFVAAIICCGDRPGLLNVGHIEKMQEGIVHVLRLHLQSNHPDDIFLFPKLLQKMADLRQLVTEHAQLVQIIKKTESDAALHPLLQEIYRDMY

[2] = biological target: T2, Peroxisome proliferator-activated receptor gamma (Homo sapiens, UniProt P37231); type: cell-based, 293T; conditions: read-out: EC50
T2 sequence (P37231 whole entry): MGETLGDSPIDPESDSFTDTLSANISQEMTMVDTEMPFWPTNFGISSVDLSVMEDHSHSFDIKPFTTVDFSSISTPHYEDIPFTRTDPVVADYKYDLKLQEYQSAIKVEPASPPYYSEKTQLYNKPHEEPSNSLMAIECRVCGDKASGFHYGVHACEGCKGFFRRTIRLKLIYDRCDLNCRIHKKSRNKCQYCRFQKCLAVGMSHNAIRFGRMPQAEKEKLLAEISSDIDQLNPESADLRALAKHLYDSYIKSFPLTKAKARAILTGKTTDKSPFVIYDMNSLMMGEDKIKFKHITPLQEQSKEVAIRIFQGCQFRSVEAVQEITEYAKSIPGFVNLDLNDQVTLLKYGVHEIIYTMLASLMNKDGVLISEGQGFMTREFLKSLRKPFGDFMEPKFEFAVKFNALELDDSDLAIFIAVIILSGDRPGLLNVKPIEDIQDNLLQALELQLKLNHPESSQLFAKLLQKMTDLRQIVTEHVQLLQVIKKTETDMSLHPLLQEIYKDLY

[3] = biological target: T3, Peroxisome proliferator-activated receptor alpha (Homo sapiens, UniProt Q07869); test: Agonist activity at human PPARalpha ligand binding domain expressed in human 293T cells co-transfected with Gal4-DBD by luciferase transactivation assay; type: cell-based; conditions: read-out: EC50
T3 sequence (Q07869 whole entry): T1 sequence (whole entry)

[4] = biological target: T4, Peroxisome proliferator-activated receptor delta (Homo sapiens, UniProt Q03181)
T4 sequence (Q03181 whole entry): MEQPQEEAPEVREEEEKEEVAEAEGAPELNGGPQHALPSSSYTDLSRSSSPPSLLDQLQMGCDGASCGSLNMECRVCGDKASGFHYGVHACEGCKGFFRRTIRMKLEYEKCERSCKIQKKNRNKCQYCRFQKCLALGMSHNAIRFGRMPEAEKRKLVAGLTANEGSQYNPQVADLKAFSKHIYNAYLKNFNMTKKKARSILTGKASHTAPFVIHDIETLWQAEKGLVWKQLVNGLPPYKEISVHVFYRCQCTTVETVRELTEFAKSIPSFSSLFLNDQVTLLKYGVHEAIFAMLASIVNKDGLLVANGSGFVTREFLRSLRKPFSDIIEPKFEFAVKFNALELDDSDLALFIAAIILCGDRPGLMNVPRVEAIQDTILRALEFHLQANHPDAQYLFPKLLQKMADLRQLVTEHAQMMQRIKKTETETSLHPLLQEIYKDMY

SMILES	Efficacy [1]	EC50 [2]	EC50 [3]	EC50 [4]
Cc1cc(OCc2nc(-c3cnc(N4CCOCC4)nc3)c(-c3ccc(OC(F)(F)F)cc3)s2)ccc1OCC(=O)O	38%	> 10000 nM	1990 nM	3 nM
COc1ccc(-c2nc(SCCOc3ccc(OCC(=O)O)c(C)c3)sc2-c2ccc(OC)cc2)cc1	64%	5660 nM	5350 nM	> 10000 nM
Cc1cc(OCc2nc(-c3ccc(C(=O)N4CCCCC4)cc3)c(-c3ccc(OC(F)(F)F)cc3)o2)ccc1OCC(=O)O	43%	> 10000 nM	1150 nM	18 nM
Cc1cc(OCc2nc(-c3cnc(OC(C)C)nc3)c(-c3ccc(OC(F)(F)F)cc3)o2)ccc1OCC(=O)O	82%	980 nM	160 nM	1 nM
COc1ccc(-c2csc(COc3ccc(OCC(=O)O)c(C)c3)n2)cc1	5%	> 10000 nM	4080 nM	4060 nM
Cc1cc(OCc2nc(-c3cnc(N4CCOCC4)nc3)c(-c3ccc(OC(F)(F)F)cc3)o2)ccc1OCC(=O)O	69%	1030 nM	410 nM	1 nM
COc1ccc(-c2nc(SCCCCOc3ccc(OCC(=O)O)c(C)c3)sc2-c2ccc(OC)cc2)cc1	89%	6360 nM	2370 nM	> 10000 nM
Cc1cc(OCc2nc(-c3ccc(C(=O)N(C)C(C)C)cc3)c(-c3ccc(OC(F)(F)F)cc3)s2)ccc1OCC(=O)O	65%	1200 nM	690 nM	2 nM
COc1ccc(-c2nc(SCCCOc3ccc(OCC(=O)O)c(C)c3)sc2-c2ccc(OC)cc2)cc1	62%	6890 nM	5250 nM	> 10000 nM
Cc1cc(OCc2nc(-c3ccc(C(=O)N(C)C(C)C)cc3)c(-c3ccc(OC(F)(F)F)cc3)o2)ccc1OCC(=O)O	49%	600 nM	700 nM	1 nM
Cc1cc(OCc2nc(-c3ccc(N4CCCCC4)cc3)c(-c3ccc(OC(F)(F)F)cc3)s2)ccc1OCC(=O)O	9%	> 10000 nM	5200 nM	52 nM
Cc1cc(OCc2nc(-c3ccc(C(=O)N4CCCCC4)cc3)c(-c3ccc(OC(F)(F)F)cc3)s2)ccc1OCC(=O)O	55%	1560 nM	1590 nM	6 nM
CCOC(Cc1ccc(OCc2nc(-c3ccc(OC)cc3)c(-c3ccc(C(F)(F)F)cc3)s2)cc1)C(=O)O (stereo unspecified)	37%	1310 nM	1090 nM	1870 nM
CCN(CC)c1ccc(-c2nc(COc3ccc(OCC(=O)O)c(C)c3)sc2-c2ccc(OC(F)(F)F)cc2)cc1		> 10000 nM	> 10000 nM	30 nM
Cc1cc(OCc2nc(-c3cncnc3)c(-c3ccc(OC(F)(F)F)cc3)o2)ccc1OCC(=O)O		> 10000 nM	> 10000 nM	55 nM
COc1ccc(-c2nc(COc3ccccc3OCC(=O)O)sc2-c2ccc(C(F)(F)F)cc2)cc1		> 10000 nM	> 10000 nM	> 10000 nM
COc1ccc(-c2nc(COc3ccc(OCC(=O)O)c(C)c3)sc2-c2ccc(-c3ccccc3)cc2)cc1		> 10000 nM	> 10000 nM	10 nM
Cc1cc(OCc2nc(-c3ccc(-c4ccccc4)cc3)c(-c3ccc(-c4ccccc4)cc3)s2)ccc1OCC(=O)O		> 10000 nM	> 10000 nM	130 nM
COc1ccc(-c2nc(COc3ccc(OC(C)(C)C(=O)O)cc3)sc2-c2ccc(C(F)(F)F)cc2)cc1		> 10000 nM	> 10000 nM	1200 nM
COc1ccc(-c2nc(CSc3ccc(CC(=O)O)cc3Cl)sc2-c2ccc(C(F)(F)F)cc2)cc1		> 10000 nM	> 10000 nM	62 nM
Cc1cc(OCc2nc(-c3ccc(C(F)(F)F)cc3)c(-c3ccc(OC(F)(F)F)cc3)s2)ccc1OCC(=O)O		> 10000 nM	> 10000 nM	331 nM
